Measured values as given in the supplement of paper PMC10307832.

Assays:
Assay in all cases: relative viability (nuclei count vs DMSO), 5 days (fraction); higher = more cells survive
BI-D1870 + Olaparib = compound: CC(C)CCN1c2nc(Nc3cc(F)c(O)c(F)c3)ncc2N(C)C(=O)C1C [BI-D1870] + O=C(c1cc(Cc2n[nH]c(=O)c3ccccc23)ccc1F)N1CCN(C(=O)C2CC2)CC1 [Olaparib] (partner 8 µM)
In short: (§1)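 Cells from lung cancer lines were seeded into 1536-well plates and, one day later, dosed by pin tool. Treatments were either a single drug or a fixed dose of an anchor drug with five library-drug doses (not always all listed) in √10 steps. After 5 days, nuclei were stained in a one-step fixation (final 0.05% Triton X-100, 1% formaldehyde, 1 ug/ml Hoechst) and counted on 4× images, and relative viability is the treated-to-vehicle nuclei ratio, as the median of duplicate plates.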

BI-D1870 + Bortezomib = compound: CC(C)CCN1c2nc(Nc3cc(F)c(O)c(F)c3)ncc2N(C)C(=O)C1C [BI-D1870] + CC(C)C[C@H](NC(=O)[C@H](Cc1ccccc1)NC(=O)c1cnccn1)B(O)O [Bortezomib] (partner 0.002 µM)
In short: as §1

BI-D1870 + Tozasertib = compound: CC(C)CCN1c2nc(Nc3cc(F)c(O)c(F)c3)ncc2N(C)C(=O)C1C [BI-D1870] + Cc1cc(Nc2cc(N3CCN(C)CC3)nc(Sc3ccc(NC(=O)C4CC4)cc3)n2)n[nH]1 [Tozasertib] (partner 0.1 µM)
In short: as §1

BI-D1870 + Lapatinib = compound: CC(C)CCN1c2nc(Nc3cc(F)c(O)c(F)c3)ncc2N(C)C(=O)C1C [BI-D1870] + CS(=O)(=O)CCNCc1ccc(-c2ccc3ncnc(Nc4ccc(OCc5cccc(F)c5)c(Cl)c4)c3c2)o1 [Lapatinib] (partner 2 µM)
In short: as §1

Row | Cell Line | relative viability (BI-D1870 + Olaparib; first compound 0.04 µM) | relative viability (BI-D1870 + Olaparib; first compound 0.1265 µM) | relative viability (BI-D1870 + Olaparib; first compound 0.4 µM) | relative viability (BI-D1870 + Olaparib; first compound 1.265 µM) | relative viability (BI-D1870 + Olaparib; first compound 4 µM) | relative viability (BI-D1870 + Bortezomib; first compound 0.04 µM) | relative viability (BI-D1870 + Bortezomib; first compound 0.1265 µM) | relative viability (BI-D1870 + Bortezomib; first compound 0.4 µM) | relative viability (BI-D1870 + Bortezomib; first compound 1.265 µM) | relative viability (BI-D1870 + Bortezomib; first compound 4 µM) | relative viability (BI-D1870 + Tozasertib; first compound 0.04 µM) | relative viability (BI-D1870 + Tozasertib; first compound 0.1265 µM) | relative viability (BI-D1870 + Tozasertib; first compound 0.4 µM) | relative viability (BI-D1870 + Tozasertib; first compound 1.265 µM) | relative viability (BI-D1870 + Tozasertib; first compound 4 µM) | relative viability (BI-D1870 + Lapatinib; first compound 0.04 µM) | relative viability (BI-D1870 + Lapatinib; first compound 0.1265 µM) | relative viability (BI-D1870 + Lapatinib; first compound 0.4 µM) | relative viability (BI-D1870 + Lapatinib; first compound 1.265 µM) | relative viability (BI-D1870 + Lapatinib; first compound 4 µM)
1 | NCI-H727 | 0.704 | 0.563 | 0.675 | 0.649 | 0.779 | 0.813 | 0.724 | 0.913 | 1.24 | 0.833 | 0.683 | 0.699 | 0.561 | 0.773 | 0.557 | 1.15 | 0.819 | 0.786 | 1.18 | 0.673
2 | NCI-H1355 | 0.898 | 0.698 | 0.713 | 0.74 | 0.57 | 1.24 | 1.22 | 1.21 | 1.28 | 1.02 | 0.598 | 0.528 | 0.498 | 0.374 | 0.384 | 0.955 | 0.959 | 0.907 | 1.21 | 0.809
3 | HOP-62 | 0.545 | 0.364 | 0.388 | 0.525 | 0.383 | 0.74 | 0.812 | 0.809 | 0.803 | 0.456 | 0.371 | 0.371 | 0.407 | 0.39 | 0.301 | 1.07 | 1.08 | 0.934 | 1.06 | 0.825
4 | NCI-H2085 | 0.813 | 0.768 | 0.737 | 0.702 | 0.429 | 1.17 | 0.994 | 0.947 | 0.968 | 0.762 | 0.816 | 0.735 | 0.544 | 0.547 | 0.401 | 0.731 | 0.71 | 0.739 | 0.926 | 0.654
